Data published in ChEMBL document CHEMBL5046276 (J Med Chem, 2022).
Activity calls are given as the source filed them. The rule behind the calls is not given here.

Columns and labels:
[1] = Tmax in BALB/c mouse at 5 mg/kg, ip measured after upto 24 hrs by LC-MS/MS analysis; type: ADME, organism-based; conditions: in vivo
Histone deacetylase 2 [2] = biological target: T1, Histone deacetylase 2 (Homo sapiens, UniProt Q92769); assay: Potency index, ratio of test compound IC50 to Quisinostat IC50 for inhibition of recombinant human full length C-terminal His tagged HDAC2 (1 to 488 residues) expressed in baculovirus-infected Sf9 insect cells using Ac-peptide as substrate incubated for 4 hrs
T1 sequence (Q92769 whole entry, the tested form may be a part): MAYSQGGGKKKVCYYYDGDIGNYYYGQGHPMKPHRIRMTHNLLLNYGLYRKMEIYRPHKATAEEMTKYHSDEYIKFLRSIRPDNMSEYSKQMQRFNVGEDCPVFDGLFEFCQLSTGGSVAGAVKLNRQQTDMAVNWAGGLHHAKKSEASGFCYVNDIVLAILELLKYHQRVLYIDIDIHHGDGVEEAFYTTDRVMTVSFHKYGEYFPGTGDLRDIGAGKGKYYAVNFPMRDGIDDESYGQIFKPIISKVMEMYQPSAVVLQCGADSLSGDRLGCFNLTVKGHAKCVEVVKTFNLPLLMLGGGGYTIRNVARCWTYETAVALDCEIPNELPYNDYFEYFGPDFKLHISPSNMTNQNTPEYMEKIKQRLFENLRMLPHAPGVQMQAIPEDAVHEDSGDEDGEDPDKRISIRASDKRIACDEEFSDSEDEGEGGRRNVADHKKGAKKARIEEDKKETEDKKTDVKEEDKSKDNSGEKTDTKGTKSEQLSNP

Plasmodium falciparum [3] = assay: (§1) Antimalarial activity against wild-type Plasmodium falcipuram 3D7 infected in human RBC assessed as reduction in parasitemia in blood smear by measuring parasite survival ratio at ring stage at upto 700 nM incubated for 6 hrs followed by compound washout and replacement with fresh medium without compounds and measured after 66 hrs by ring stage survival assay; type: functional; conditions: dose nM <=700, time 6.0 hrs
Plasmodium falciparum [4] = assay: Antimalarial activity against synchronized Plasmodium falcipuram 3D7 infected in human RBC assessed as irreversible inhibition of parasite growth at trophozoite stage at 40 nM treated at 17 to 29 hpi incubated for 12 hrs followed by compound washout and replacement with fresh medium without compounds and measured after 4 days by flow cytometry; type: functional, organism-based
[5] = Cytotoxicity against HEK293T cells incubated for 72 hrs by CCK-8 assay; conditions: human
Plasmodium falciparum [6] = assay: Antimalarial activity against blood stage asynchronous Plasmodium falcipuram 3D7 assessed as suppression of parasite reproduction by measuring parasitemia at 10 nM incubated for 24 hrs followed by compound washout and replacement with fresh medium without compounds and measured after 4 days by flow cytometry; type: functional
Plasmodium yoelii [7] = assay: Antimalarial activity against blood stage Plasmodium yoelii infected in BALB/c mouse assessed as parasite killing by measuring parasitemia at 30 to 90 mg/kg, ip qd for 5 days and measured on day 60; type: functional, organism-based; conditions: dose 30-90 mg/kg, time 60.0 day
Plasmodium falciparum [8] = assay: as §1, with “ART-resistant” for “wild-type”, “6320 harbouring C580Y mutant” for “3D7”; type: functional; conditions: dose nM <=700, time 6.0 hrs
Plasmodium yoelii [9] = assay: Antimalarial activity against blood stage Plasmodium yoelii infected in BALB/c mouse assessed as parasite recrudescence by measuring parasitemia at 60 mg/kg, ip qd for 5 days and measured on 12 to 18 days; type: functional; conditions: time 12-18 day
Plasmodium falciparum [10] = assay: Antimalarial activity against early stage (II) Plasmodium falciparum NF54 gametocytes transfected with p230p-Luc assessed as reduction in gametocyte viability incubated for 48 hrs by luciferase reporter gene based bioluminescence assay; type: functional, organism-based; conditions: NF54, 48 h
Histone deacetylase 2 [11] = biological target: T1, Histone deacetylase 2; assay: biochemical; type: cell-based, Sf9
Description: Inhibition of recombinant human full length C-terminal His tagged HDAC2 (1 to 488 residues) expressed in baculovirus-infected Sf9 insect cells using Ac-peptide as substrate incubated for 4 hrs

[12] = Apparent elimination half life in BALB/c mouse at 5 mg/kg, ip measured after upto 24 hrs by LC-MS/MS analysis; type: ADME, organism-based; conditions: in vivo, read-out: betat1/2(app) (converted)
Plasmodium falciparum [13] = assay: Antimalarial activity against asexual blood stage chloroquine-resistant Plasmodium falciparum Dd2 assessed as parasite growth inhibition incubated for 72 hrs by SYBR Green I staining based fluorescence analysis; type: functional, organism-based; conditions: Dd2, 72 h
Plasmodium falciparum [14] = assay: Antimalarial activity against asexual blood stage chloroquine-resistant Plasmodium falcipuram GB4 assessed as parasite growth inhibition incubated for 72 hrs by SYBR Green I staining based fluorescence analysis; type: functional, organism-based; conditions: GB4, 72 h
Plasmodium falciparum [15] = assay: Antimalarial activity against asexual blood stage wild-type Plasmodium falciparum 3D7 assessed as parasite growth inhibition incubated for 72 hrs by SYBR Green I staining based fluorescence analysis; type: functional, organism-based; conditions: 3D7, 72 h
[16] = Toxicity in BALB/c mouse infected with blood stage Plasmodium yoelii assessed as animal death at 60 mg/kg, ip qd for 5 days measured from day 2 post compound treatment; type: organism-based; conditions: in vivo, 120 h, time 5 day
[17] = Metabolic stability in human liver microsomes assessed as half life at […] incubated for 45 mins in presence of NADPH by LC/MS analysis; type: ADME, Microsome
[18] = Metabolic stability in rat liver microsomes assessed as half life at […] incubated for 45 mins in presence of NADPH by LC/MS analysis; type: ADME, Microsome
Plasmodium falciparum [19] = assay: Antimalarial activity against synchronized Plasmodium falcipuram 3D7 infected in human RBC assessed as irreversible inhibition of parasite growth at ring stage at 40 nM treated at 5 to 17 hpi incubated for 12 hrs followed by compound washout and replacement with fresh medium without compounds and measured after 4 days by flow cytometry; type: functional, organism-based
Plasmodium yoelii [20] = assay: Antimalarial activity against blood stage Plasmodium yoelii infected in BALB/c mouse assessed as parasite recrudescence by measuring parasitemia at 60 mg/kg, ip qd for 5 days and measured on 11 to 15 days; type: functional; conditions: time 11-15 day
[21] = Metabolic stability in mouse liver microsomes assessed as intrinsic clearance at […] incubated for 45 mins in presence of NADPH by LC/MS analysis; type: ADME, Microsome; conditions: read-out: CLH
Plasmodium falciparum [22] = assay: Antimalarial activity against synchronized Plasmodium falcipuram 3D7 infected in human RBC assessed as ring stage parasite killing at 40 nM treated […] and incubated for 12 hrs followed by compound washout and replacement with fresh medium without compounds and measured at 50 hrs post infection by Geimsa staining based microscopy; type: functional, organism-based
[23] = Cytotoxicity against human HepG2 cells incubated for 72 hrs by CCK-8 assay
Plasmodium falciparum [24] = assay: Inhibition of Plasmodium falcipuram HDAC assessed as effect on parasite histone deacetylation level at 5 to 20 nM incubated for 4 hrs by Western blot analysis; conditions: dose 5-20 nM
Plasmodium falciparum [25] = assay: Antimalarial activity against asexual blood stage quinine-resistant Plasmodium falcipuram C2A assessed as parasite growth inhibition incubated for 72 hrs by SYBR Green I staining based fluorescence analysis; type: functional, organism-based
Plasmodium yoelii [26] = assay: Antimalarial activity against blood stage Plasmodium yoelii infected in BALB/c mouse assessed as inhibition of parasitemia at 60 mg/kg, ip qd for 5 days and measured after 30 days; type: functional, organism-based; conditions: time 30.0 day
[27] = AUC (0 to last) in BALB/c mouse at 5 mg/kg, ip measured after upto 24 hrs by LC-MS/MS analysis; type: ADME, organism-based; set-up: route intraperitoneal, dose 5 mg/kg, time <=24; conditions: in vivo
Plasmodium falciparum [28] = assay: In vivo inhibition of C-terminal glmS fused HDAC2 in Plasmodium falcipuram 3D7 assessed as inhibition of parasite growth incubated for 4 hrs followed by compound washout and replacement with fresh medium with compounds measured after 68 hrs by SYBR Green I staining based fluorescence analysis; type: functional, organism-based
Histone deacetylase 3 = Histone deacetylase 3 (Homo sapiens, UniProt O15379); assay: Potency index, ratio of test compound IC50 to Quisinostat IC50 for inhibition of human C-terminal His tagged HDAC3 (1 to 428 residues) expressed in baculovirus-infected Sf9 cells using Ac-peptide as substrate incubated for 4 hrs
Histone deacetylase 3, sequence (O15379 whole entry, the tested form may be a part): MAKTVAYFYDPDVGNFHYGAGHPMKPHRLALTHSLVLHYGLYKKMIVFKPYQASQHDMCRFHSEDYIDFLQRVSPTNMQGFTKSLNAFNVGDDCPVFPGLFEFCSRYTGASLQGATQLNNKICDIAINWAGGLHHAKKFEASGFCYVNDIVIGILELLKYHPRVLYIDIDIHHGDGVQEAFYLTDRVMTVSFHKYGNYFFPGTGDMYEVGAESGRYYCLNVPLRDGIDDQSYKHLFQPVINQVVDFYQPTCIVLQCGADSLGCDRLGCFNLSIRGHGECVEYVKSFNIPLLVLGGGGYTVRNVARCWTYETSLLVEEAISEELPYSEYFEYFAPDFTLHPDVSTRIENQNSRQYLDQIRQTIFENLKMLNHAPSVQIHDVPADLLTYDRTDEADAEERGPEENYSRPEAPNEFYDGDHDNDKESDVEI

Histone deacetylase 1 = Histone deacetylase 1 (Homo sapiens, UniProt Q13547); assay: Inhibition of recombinant human full length C-terminal His/FLAG tagged HDAC1 (1 to 482 residues) expressed in baculovirus-infected Sf9 cells using Ac-peptide as substrate incubated for 4 hrs
Histone deacetylase 1, sequence (Q13547 whole entry, the tested form may be a part): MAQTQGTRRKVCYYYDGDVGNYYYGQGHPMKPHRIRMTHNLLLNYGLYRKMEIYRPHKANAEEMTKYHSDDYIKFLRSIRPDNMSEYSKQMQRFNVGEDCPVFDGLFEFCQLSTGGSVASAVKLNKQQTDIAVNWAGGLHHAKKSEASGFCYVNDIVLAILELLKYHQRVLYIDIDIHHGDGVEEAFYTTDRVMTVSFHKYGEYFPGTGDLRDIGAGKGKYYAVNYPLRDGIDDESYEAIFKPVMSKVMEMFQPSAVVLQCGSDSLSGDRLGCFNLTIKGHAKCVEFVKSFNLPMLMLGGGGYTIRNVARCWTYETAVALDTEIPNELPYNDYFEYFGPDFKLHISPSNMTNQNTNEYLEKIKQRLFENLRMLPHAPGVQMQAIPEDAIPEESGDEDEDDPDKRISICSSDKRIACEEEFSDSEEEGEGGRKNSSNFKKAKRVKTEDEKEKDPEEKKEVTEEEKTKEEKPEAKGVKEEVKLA

[29] = Apparent volume of distribution in BALB/c mouse at 5 mg/kg, ip measured after upto 24 hrs by LC-MS/MS analysis; type: ADME, organism-based; conditions: in vivo, read-out: Vz/F
Plasmodium falciparum [30] = assay: In vivo inhibition of C-terminal TY1 fused HDAC1 in Plasmodium falcipuram 3D7 assessed as inhibition of parasite growth by measuring downregulation of RBC invasion-related genes expression level by RNA-seq analysis; type: functional, organism-based

Cl.Cn1cc(CN2CC3(CCN(c4ncc(C(=O)NO)cn4)C3)C2)c2ccc(C#N)cc21
Tmax [1]: 15 min
Ratio IC50 (Histone deacetylase 2 [2]): 3
Activity (Plasmodium falciparum [3]): Active
Activity (Plasmodium falciparum [4]): Active
IC50 at 72 h [5]: 1210 nM
Activity (Plasmodium falciparum [6]): 100%
Activity (Plasmodium yoelii [7]): Active
Activity (Plasmodium falciparum [8]): Active
Activity (Plasmodium yoelii [9]): 0.11%
IC50 (Plasmodium falciparum [10]): 15.4 nM
IC50 (Histone deacetylase 2 [11]): 5.1 nM
half-life [12]: 54.6 min
IC50 (Plasmodium falciparum [13]): 1.61 nM
IC50 (Plasmodium falciparum [14]): 3.06 nM
IC50 (Plasmodium falciparum [15]): 1.26 nM
Activity [16]: Non-Toxic
half-life [17]: > 120 min
half-life [18]: > 120 min
Activity (Plasmodium falciparum [19]): Active
Activity (Plasmodium yoelii [20]): 0.01%
CLint scaled [21]: 68.1 mL/min/kg
Activity (Plasmodium falciparum [22]): Active
IC50 at 72 h [23]: 1020 nM
Activity (Plasmodium falciparum [24]): Active
IC50 (Plasmodium falciparum [25]): 2.18 nM
Activity (Plasmodium yoelii [26]): Active
AUC(0-t) at 24 h [27]: 638 ng·h/mL
inhibition (Plasmodium falciparum [28]): Active
Ratio IC50 (Histone deacetylase 3): 3
IC50 (Histone deacetylase 1): 2.2 nM
Vd/F [29]: 10.2 L/kg
inhibition (Plasmodium falciparum [30]): Active
